Data on 18 compounds can be found in patent US20250136576A1, “Heterocyclic Compounds and Uses Thereof” (ACEA Therapeutics, Inc., priority 2021, published 2025).

In general, IC50 refers to the concentration at which inhibition is half-maximal.

SMILES strings stand for the structures. Where two headings read alike, the source gives them in different places.

The subject of one test is H1975 cells. Put plainly: Cell proliferation and growth inhibition assay (CCK-8) in H1975. The test is classed as cell-based. The settings on record: treated with test compounds for 72 hrs, CCK-8 viability, read-out: EGFR IC50 in H1975. As to the method: MV-4-11 and H1975 cells were obtained from the American Type Culture Collection and KM12-luc cells were obtained from JCRB Cell Bank. All cell lines were maintained at 37° C. with 5% C02, in media supplemented with 10% fetal bovine serum and penicillin (100 units/mL) and streptomycin (100 μg/mL). MV-4-11 cells were maintained in Iscove's Modified Dubecco's Medium, H1975 cells were cultured with RPMI 1640 media, and KM12-luc cells were maintained in Dulbecco's Modification of Eagle's Medium. CCK-8 reagent was obtained from Yeasen.
Cell proliferation was assessed by CCK-8 assay (Yeasen) per the manufacturer's instructions. The MV-4-11 (AML), H1975, and KM12-luc cells were seeded at 30,000, 3,000 and 2,500 cells per well onto 96-well plates, and after a 24 h incubation, the cells were treated with test compounds for 72 hrs. Cell viability was assayed by incubating the cells with CCK-8 reagent for 1-4 hrs. Absorbance was measured at OD450 using the Beckman DTX880. The data was calculated using GraphPad Prism version 6.01. The IC50 values were fitted using a non-linear regression model with a sigmoidal dose response.

Another test concerns KM12-luc cells. The test can be described thus: Cell proliferation and growth inhibition assay (CCK-8) in KM12-luc. It is filed as cell-based. The settings on record: KM12-luc cells, treated with test compounds for 72 hrs, CCK-8 viability, read-out: NTRK IC50 in KM12-luc. The essentials:
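IC50 values were fitted by sigmoidal dose-response non-linear regression of CCK-8 OD450 absorbance after 1-4 hrs with reagent. Culture media were IMDM for MV-4-11, RPMI 1640 for H1975 and DMEM for KM12-luc, each with 10% FBS at 37 °C, 5% CO2.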

Consider `CC(=O)Nc1cc(Nc2ncc(C(F)(F)F)c(-c3c[nH]c4ccccc34)n2)ccc1NCCN(C)C` [Compound 303a, N-(5-((4-(1H-indol-3-yl)-5-(trifluoromethyl)pyrimidin-2-yl)amino)-2-((2-(dimethylamino)ethyl)amino)phenyl)acetamide], for which the IC50 was found to be 109 nM in the test with H1975 cells (Homo sapiens, NCI-H1975, 72 h) and 19.1 nM in the test with KM12-luc cells (KM12-Luc, 72 h).
For the compound `CC(=O)Nc1cc(Nc2ncc(C(F)(F)F)c(-c3cn(C)c4ccccc34)n2)ccc1N(C)CCN(C)C` [Compound 305, N-(2-((2-(dimethylamino)ethyl)(methyl)amino)-5-((4-(1-methyl-1H-indol-3-yl)-5-(trifluoromethyl)pyrimidin-2-yl)amino)phenyl)acetamide], the IC50 with H1975 cells worked out at 653 nM; in the test on KM12-luc cells it was 28.9 nM.
As to `CC(=O)Nc1cc(Nc2ncc(C(F)(F)F)c(-c3c[nH]c4cccc(F)c34)n2)ccc1N(C)CCN(C)C` [Compound 316, N-(2-((2-(dimethylamino)ethyl)(methyl)amino)-5-((4-(4-fluoro-1H-indol-3-yl)-5-(trifluoromethyl)pyrimidin-2-yl)amino)phenyl)acetamide], the IC50 amounted to 477 nM in the test on H1975 cells (Homo sapiens, NCI-H1975, 72 h) and 21.6 nM with KM12-luc cells (KM12-Luc, 72 h).
The like results for `CC(=O)Nc1cc(Nc2ncc(C(F)(F)F)c(-c3c[nH]c4c(C)cccc34)n2)c(F)cc1N(C)CCN(C)C` [Compound 362, N-(2-((2-(dimethylamino)ethyl)(methyl)amino)-4-fluoro-5-((4-(7-methyl-1H-indol-3-yl)-5-(trifluoromethyl)pyrimidin-2-yl)amino)phenyl)acetamide] were, in that order, 18.6 nM and 32.6 nM.
The like results for `CC(=O)Nc1cc(Nc2ncc(C(F)(F)F)c(-c3cn(C)c4c(C)cccc34)n2)ccc1N(C)CCN(C)C` [Compound 368, N-(5-((4-(1,7-dimethyl-1H-indol-3-yl)-5-(trifluoromethyl)pyrimidin-2-yl)amino)-2-((2-(dimethylamino)ethyl)(methyl)amino)phenyl)acetamide] were, in that order, 356 nM and 22.9 nM.
The like results for `COc1cccc2c(-c3nc(Nc4cc(NC(C)=O)c(N(C)CCN(C)C)cc4F)ncc3C(F)(F)F)c[nH]c12` [Compound 378, N-(2-((2-(dimethylamino)ethyl)(methyl)amino)-4-fluoro-5-((4-(7-methoxy-1H-indol-3-yl)-5-(trifluoromethyl)pyrimidin-2-yl)amino)phenyl)acetamide] were, in that order, 26.1 nM and 43.4 nM.
Turning to `CC(=O)Nc1cc(Nc2ncc(Cl)c(-c3c[nH]c4ccccc34)n2)cc(F)c1N1CCC(N(C)C)C1` (stereo not drawn) [Compound 392, N-(5-((5-chloro-4-(1H-indol-3-yl)pyrimidin-2-yl)amino)-2-(3-(dimethylamino)pyrrolidin-1-yl)-3-fluorophenyl)acetamide], the IC50 came out at 862 nM in the test with H1975 cells (Homo sapiens, NCI-H1975, 72 h) and 18.1 nM with KM12-luc cells (KM12-Luc, 72 h).
With `CC(=O)Nc1cc(Nc2ncc(Cl)c(-c3cn(C)c4ccccc34)n2)ccc1NCCN(C)C` [Compound 400a, N-(5-((5-chloro-4-(1-methyl-1H-indol-3-yl)pyrimidin-2-yl)amino)-2-((2-(dimethylamino)ethyl)amino)phenyl)acetamide], the IC50 in the test with H1975 cells (Homo sapiens, NCI-H1975, 72 h) was found to be 1010 nM; in the test with KM12-luc cells (KM12-Luc, 72 h) it was 42 nM.
The like results for `CC(=O)Nc1cc(Nc2ncc(Cl)c(-c3c[nH]c4c(F)cccc34)n2)ccc1N(C)CCN(C)C` [Compound 412, N-(5-((5-chloro-4-(7-fluoro-1H-indol-3-yl)pyrimidin-2-yl)amino)-2-((2-(dimethylamino)ethyl)(methyl)amino)phenyl)acetamide] were, in that order, 380 nM and 8.4 nM.
The like results for `CC(=O)Nc1cc(Nc2ncc(Cl)c(-c3c[nH]c4c(C)cccc34)n2)ccc1N(C)CCN(C)C` [Compound 423, N-(5-((5-chloro-4-(7-methyl-1H-indol-3-yl)pyrimidin-2-yl)amino)-2-((2-(dimethylamino)ethyl)(methyl)amino)phenyl)acetamide] were, in that order, 66.5 nM and 4.7 nM.
The like results for `COc1cccc2c(-c3nc(Nc4ccc(N(C)CCN(C)C)c(NC(C)=O)c4)ncc3Cl)c[nH]c12` [Compound 433, N-(5-(5-chloro-4-(7-methoxy-1H-indol-3-yl)pyrimidin-2-ylamino)-2-((2-(dimethylamino)ethyl)(methyl)amino)phenyl)acetamide] were, in that order, 506 nM and 13.9 nM.
With `CCN(CCN(C)C)c1ccc(Nc2ncc(Cl)c(-c3c[nH]c4ccccc34)n2)cc1NC(C)=O` [Compound 442, N-(5-((5-chloro-4-(1H-indol-3-yl)pyrimidin-2-yl)amino)-2-((2-(dimethylamino)ethyl)(ethyl)amino)phenyl)acetamide], the IC50 worked out at 328 nM in the test on H1975 cells (Homo sapiens, NCI-H1975, 72 h) and 6.4 nM in the test on KM12-luc cells (KM12-Luc, 72 h).
Regarding `CC(=O)Nc1cc(Nc2ncc(C(F)(F)F)c(-c3cn(C)c4c(C)cccc34)n2)ccc1N1CC[C@@H](N(C)C)C1` [Compound R-373, (R)—N-(5-((4-(1,7-dimethyl-1H-indol-3-yl)-5-(trifluoromethyl)pyrimidin-2-yl)amino)-2-(3-(dimethylamino)pyrrolidin-1-yl)phenyl)acetamide], the IC50 in the test on H1975 cells (Homo sapiens, NCI-H1975, 72 h) is 923 nM; in the test on KM12-luc cells (KM12-Luc, 72 h), 22.8 nM.
In the same order, the values of `COc1cccc2c(-c3nc(Nc4ccc(N5CC[C@@H](N(C)C)C5)c(NC(C)=O)c4)ncc3C(F)(F)F)cn(C)c12` [Compound R-389, (R)—N-(2-(3-(dimethylamino)pyrrolidin-1-yl)-5-((4-(7-methoxy-1-methyl-1H-indol-3-yl)-5-(trifluoromethyl)pyrimidin-2-yl)amino)phenyl)acetamide] are 940 nM and 24.8 nM.
In the same order, the values of `COc1cccc2c(-c3nc(Nc4ccc(N5CC[C@@H](N(C)C)C5)c(NC(C)=O)c4)ncc3Cl)cn(C)c12` [Compound R-435, (R)—N-(5-(5-chloro-4-(7-methoxy-1-methyl-1H-indol-3-yl)pyrimidin-2-ylamino)-2-(3-(dimethylamino)pyrrolidin-1-yl)phenyl)acetamide] are 1040 nM and 31.9 nM.
In the same order, the values of `COc1cnc(Nc2ccc(N3CC[C@H](N(C)C)C3)c(NC(C)=O)c2)nc1-c1c[nH]c2c(F)cccc12` [Compound S-280, (S)—N-(2-(3-(dimethylamino)pyrrolidin-1-yl)-5-((4-(7-fluoro-1H-indol-3-yl)-5-methoxypyrimidin-2-yl)amino)phenyl)acetamide] are 1250 nM and 14.6 nM.
In the case of `COc1cnc(Nc2ccc(N3CC[C@H](N(C)C)C3)c(NC(C)=O)c2)nc1-c1c[nH]c2c(OC)cccc12` [Compound S-288, (S)—N-(2-(3-(dimethylamino)pyrrolidin-1-yl)-5-((5-methoxy-4-(7-methoxy-1H-indol-3-yl)pyrimidin-2-yl)amino)phenyl)acetamide], the IC50 in the test on H1975 cells (Homo sapiens, NCI-H1975, 72 h) turned out to be 1260 nM; in the test on KM12-luc cells (KM12-Luc, 72 h) it was 16.9 nM.
The like results for `CC(=O)Nc1cc(Nc2ncc(C(F)(F)F)c(-c3cn(C)c4c(C)cccc34)n2)ccc1N1CC[C@H](N(C)C)C1` [Compound S-373, (S)—N-(5-((4-(1,7-dimethyl-1H-indol-3-yl)-5-(trifluoromethyl)pyrimidin-2-yl)amino)-2-(3-(dimethylamino)pyrrolidin-1-yl)phenyl)acetamide] were, in that order, 461 nM and 21.1 nM.
